According to US11155668B2, “Contact-killing, QAC functionalized thermoplastic polyurethane for catheter applications” (THE UNIVERSITY OF AKRON, priority 2017, dated 2021):

Tested on: P. aeruginosa
Test: 48 h biofilm formation assay in catheter tubing
Type: cell-based, Pseudomonas aeruginosa (ATCC 27853)
Description: For post-fabrication functionalization of the inner lumen of allyl-TPU catheter tubing with Qx-SH reagents, 0.5 mL of an Ar purged solution containing Qx-SH (10.0 mM) and LAP (5.0 mM) was flowed through 25.0 cm segments of catheter tubing every 7.5 min for the duration of a 30 min pre-soak and 30 min UV treatment (or absence of UV for phys. ads. control). Following treatment, the catheter tubes were rinsed continuously for 30 s with DI water (3×), then rinsed continuously for 30 s with 10% EtOH (3×). All samples were blown dry with N2 and placed under vacuum for 24 h before X-ray photoelectron spectroscopy (XPS) analysis or ethylene oxide (EtO) sterilization.
For antimicrobial testing, blade-coated samples and catheter tubing of allyl-TPU were sterilized by EtO sterilization using an Anprolene benchtop sterilizer (Anderson Products, Inc., Haw River, N.C.) following the manufacturer's protocol to deliver approximately 0.5 cc·L^−1 of EtO gas over a 12 h sterilization cycle at 35% humidity and room temperature, followed by a 48 h purge under vacuum. The bacterial strains used in this study included Staphylococcus epidermidis (ATCC 12228), Staphylococcus aureus (25923), Escherichia coli (ATCC 25922), Pseudomonas aeruginosa (ATCC 27853), Enterococcus faecalis (ATCC 29212), and methicillin-resistant Staphylococcus aureus (MRSA) (ATCC BAA-41).
Biofilm formation was analyzed using overnight cultures of P. aeruginosa grown in TSB and adjusted to an OD600=0.10. An assembly of catheter tubing was prepared using aseptic techniques, and included COOK™ BEACON™ TIP TORCON NB™ Advantage catheter segments (25.0 cm in length) denoted as “CC” and numbered 1-4 from upstream (1) to downstream (4). The catheter assembly was connected using 18 gauge blunt tip stainless steel needles (˜25 mm in length) sterilized in 100% EtOH. CC segments were located before, after, and in between the untreated, phys. ads., and UV-treated allyl-TPU catheter segments modified with Q8-SH to account for any downstream influence of the experimental catheters. With a peristaltic pump flowing at 1.5 mL·min^−1, fresh bacterial inoculum was continuously streamed through the catheter assembly for 2 h, followed by FAB medium (0.10 mM CaCl2, 0.01 mM Fe-EDTA, 0.15 mM (NH4)2SO4, 0.33 mM Na2HPO4, 0.20 mM KH2PO4, 0.50 mM NaCl, 0.50% (wt/vol) casamino acids, 1.0 mM MgCl2, and 10 mM sodium citrate) for 48 h. Samples were fixed with 50 mL of a 4% paraformaldehyde solution, rinsed with 200 mL of PBS, and submerged in PBS for further testing.
Photographs of the catheter tubing were taken using a camera with a 16-megapixel Sony Exmor RS IMX240 sensor and […] lens. Catheter cross-sections were cut (ca. 2.5 mm in length) from each catheter segment, rinsed thoroughly with DI water, and lyophilized for 24 h for scanning electron microscopy (SEM) analysis. SEM was performed on gold sputter-coated samples using a JEOL-7401 Field Emission Scanning Electron Microscope (JEOL USA, Inc., Peabody, Mass.) at an accelerating voltage of 2.0 kV under 45× and 300× magnification. In addition, lyophilized cross-sections (3.0 mm in length) from randomly selected locations along each catheter segment were placed vertically on a glass slide and imaged under brightfield microscope at 4× magnification. Using Olympus VS-Desktop software, the % biofilm blockage was determined by measuring the inner luminal area of untreated catheters compared to the area of the biofilm on the interior of the contaminated catheters (Equation 1).
[formula] Results are reported as averages with standard deviations (n=3) for each catheter segment.

[1] = UV-treated allyl-TPU catheter, 48 h
[2] = phys. ads. allyl-TPU catheter, 48 h

SMILES: CCCCCCCC[N+](C)(C)CCCCCCCCOC(=O)CCS.[Cl-] [Q8-SH]
- biofilm formation compared to Cook catheter, untreated and phys. ads. controls (in words) (UV-treated allyl-TPU catheter tubing, brightfield microscopy and SEM): more resistant to biofilm formation and less
- % biofilm blockage (internal volume occlusion) (UV-treated allyl-TPU catheter, inner lumen modified, 48 h, n=3): ca. 15%
- reduction of biofilm blockage from CC1 [1]: 85%
- reduction of biofilm blockage from the untreated control [1]: 69%
- reduction of biofilm blockage from CC1 [2]: 77%
- reduction of biofilm blockage from the untreated control [2]: 53%
